For this experiment, the target named is T1, cloned human M2 receptor (Homo sapiens, UniProt P08172).
T1 construct: purchased Perkin-Elmer RBHM2M; host or cells: Chinese hamster ovary cells (CHO)
T1 sequence (P08172 1-466): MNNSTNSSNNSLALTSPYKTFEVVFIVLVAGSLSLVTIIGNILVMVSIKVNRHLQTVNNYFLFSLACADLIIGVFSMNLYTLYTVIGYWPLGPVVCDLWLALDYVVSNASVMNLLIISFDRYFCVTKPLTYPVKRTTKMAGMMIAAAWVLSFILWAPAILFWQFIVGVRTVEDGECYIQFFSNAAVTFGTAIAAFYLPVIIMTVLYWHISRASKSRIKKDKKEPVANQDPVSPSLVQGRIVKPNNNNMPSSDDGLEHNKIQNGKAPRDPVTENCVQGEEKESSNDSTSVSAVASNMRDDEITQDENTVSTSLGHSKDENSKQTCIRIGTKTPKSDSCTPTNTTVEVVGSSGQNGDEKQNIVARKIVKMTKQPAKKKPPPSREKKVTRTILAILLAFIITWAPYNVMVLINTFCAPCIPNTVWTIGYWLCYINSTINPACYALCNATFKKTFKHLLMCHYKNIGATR
The experiment in a line: hM2 receptor GTPγS binding. The experiment is classed as biochemical. As to conditions: CHO membranes, [35S]GTPγS binding. Here is the method:
hM2 Receptor GTPγS Binding
Membranes produced from Chinese hamster ovary cells (CHO) expressing the cloned human M2 receptor (human Muscarinic receptor subtype 2, gene bank access NM_000739), were obtained from Perkin-Elmer (RBHM2M). The membranes were thawed at 37° C., passed 3 times through a 23-gauge blunt-end needle, diluted in the GTPγS binding buffer (50 mM Hepes, 20 mM NaOH, 100 mM NaCl, 1 mM EDTA, 5 mM MgCl2, pH 7.4, 100 μM DTT). The EC50, IC50 and Emax of the compounds of the invention were evaluated from 10-point dose-response curves (three fold concentration range) done in 60 μl in 384-well non-specific binding surface plate (Corning). Ten microliters from the dose-response curves plate (5× concentration) were transferred to another 384 well plate containing the following: 10 μg of hM2 membranes, 500 μg of Flashblue beads (Perkin-Elmer) and GDP in a 25 μl volume. An additional 15 μl containing 3.3× (55000 dpm) of GTPγ^35S (0.4 nM final) were added to the wells resulting in a total well volume of 50 μl. Basal and maximal stimulated [^35S]GTPγS binding were determined in absence and presence of 30 μM of acetylcholine agonist. The membranes/beads mix were pre-incubated for 15 minutes at room temperature with 25 μM GDP prior to distribution in plates (12.5 μM final). The reversal of acetylcholine-induced stimulation (2 μM final) of [^35S]GTPγS binding was used to assay the antagonist properties (IC50) of the compounds. The plates were incubated for 60 minutes at room temperature with shaking, then centrifuged at 2000 rpm for 5 minutes. The radioactivity (cpm) were counted in a Trilux (Perkin-Elmer).
Values of EC50, IC50 and Emax were obtained using sigmoidal fits of a non-linear curve-fitting program (XLfit version 5.0.6 from ID Business Solutions Limited, Guildford, UK) of percent stimulated [^35S]GTPγS binding vs. log(molar ligand).
All EC50 and IC50 values are reported as arithmetic means ± standard error of mean of ‘n’ independent experiments. […] The IC50 was the concentration of the compound of the invention at which 50% inhibition of acetylcholine [^35S]GTPγS binding stimulation has been observed.
One may read the EC50 as the midpoint of the concentration-response curve. High values mean a less potent agent, low ones a more potent agent. The compound `CCOC(=O)N1CC[C@H](N2CCC(N3C(=O)N[C@H]4CCCC[C@@H]43)CC2)C1` had an EC50 of 7300 nM. Under `CCOC(=O)N1CCC(N2CCC(N3C(=O)N[C@H]4CCCC[C@@H]43)CC2)CC1` stands 120 nM; under `CC(C)OC(=O)N1CCC(N2CCC(N3C(=O)C[C@H]4CCCC[C@@H]43)CC2)CC1`, 1200 nM. With `O=C(C1CC1)N1CCC(N2CCC(N3C(=O)N[C@@H]4CCCC[C@H]43)CC2)CC1` the figure was over 30000 nM; with `O=C(C1CCCC1)N1CCC(N2CCC(N3C(=O)N[C@H]4CCCC[C@@H]43)CC2)CC1`, 2600 nM. With `O=C1CCCN1CCC(=O)N1CCC(N2CCC(N3C(=O)N[C@@H]4CCCC[C@H]43)CC2)CC1` the figure was 1000 nM; with `O=C1CCCN1CCC(=O)N1CCC(N2CCC(N3C(=O)N[C@H]4CCCC[C@@H]43)CC2)CC1`, 500 nM; with `CC(C)OC(=O)N1CCC(N2CCC(N3C(=O)N[C@H]4CCCC[C@@H]43)CC2)CC1`, 760 nM. The compound `CN1C(=O)N(C2CCN(C3CCN(C(=O)C4CC4)CC3)CC2)[C@H]2CCCC[C@@H]21` registered an EC50 of over 30000 nM.

Consider `CC(C)OC(=O)N1CCC(N2CCC(N3C(=O)N[C@@H]4CCCC[C@@H]43)CC2)CC1`, for which a half-maximal response (EC50) required 2500 nM. Under `COc1ccccc1C(=O)N1CCC(N2CCC(N3C(=O)N[C@@H]4CCCC[C@H]43)CC2)CC1` stands over 30000 nM; under `O=C(OCCF)N1CCC(N2CCC(N3C(=O)N[C@H]4CCCC[C@@H]43)CC2)CC1`, 380 nM.
